Assay results published in US9637477B2, “Therapeutic substituted pyrroles” (Allergan, Inc., priority 2014, dated 2017).

Tests used:
EP2 [1] = target: T1, EP2 (Homo sapiens, UniProt P43116); assay: EP2 binding (Ki)
Description: (§1) US 2007/0129552, incorporated by reference herein in its entirety, describes the methods used to obtain the in vitro data in the table below.

EP2 [2] = target: T1, EP2; assay: EP2 cAMP assay; assay type: cell-based
Description: as §1

EP4 [3] = target: T2, EP4 (Homo sapiens, UniProt P35408); assay: EP4 binding (Ki)
T2 sequence (P35408 whole entry): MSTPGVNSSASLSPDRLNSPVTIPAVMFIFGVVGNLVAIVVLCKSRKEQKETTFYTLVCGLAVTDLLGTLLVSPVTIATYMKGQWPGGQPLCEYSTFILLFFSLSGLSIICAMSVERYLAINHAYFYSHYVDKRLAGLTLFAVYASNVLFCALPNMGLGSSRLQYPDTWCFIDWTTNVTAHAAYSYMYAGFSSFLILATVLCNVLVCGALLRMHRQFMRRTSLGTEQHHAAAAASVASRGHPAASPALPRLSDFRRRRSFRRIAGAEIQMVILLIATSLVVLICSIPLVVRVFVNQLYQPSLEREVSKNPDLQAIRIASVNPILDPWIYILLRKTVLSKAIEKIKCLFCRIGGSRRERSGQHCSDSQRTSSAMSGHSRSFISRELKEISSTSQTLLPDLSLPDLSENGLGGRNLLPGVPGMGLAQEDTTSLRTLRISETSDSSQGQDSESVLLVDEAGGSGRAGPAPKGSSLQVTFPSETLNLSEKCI
Description: as §1

EP2 [4] = target: T1, EP2; assay: EP2 flipr functional assay; assay type: cell-based
Description: as §1

EP4 [5] = target: T2, EP4; assay: EP4 flipr functional assay; assay type: cell-based
Description: as §1

T1 sequence (P43116 whole entry): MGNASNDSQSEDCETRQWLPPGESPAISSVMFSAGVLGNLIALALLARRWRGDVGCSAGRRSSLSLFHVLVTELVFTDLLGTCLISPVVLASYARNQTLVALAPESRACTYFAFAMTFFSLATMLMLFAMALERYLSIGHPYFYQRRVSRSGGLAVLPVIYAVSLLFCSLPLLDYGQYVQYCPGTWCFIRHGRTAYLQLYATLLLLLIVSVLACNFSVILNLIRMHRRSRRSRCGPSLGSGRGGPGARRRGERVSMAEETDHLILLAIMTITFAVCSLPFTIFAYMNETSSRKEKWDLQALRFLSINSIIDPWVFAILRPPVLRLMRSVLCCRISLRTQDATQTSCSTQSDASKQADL

Ki (EP2 [1]): 23 nM
EC50 (EP2 [2]): 3 nM
Ki (EP4 [3]): 2660 nM
EC50 (EP2 [4]): 998 nM
EC50 (EP4 [5]): > 10000 nM
SMILES: CCCCCCc1ccc(-c2cccn2CCCc2ccc(C(=O)O)s2)cc1 [Example 1, 5-(3-(2-(4-hexylphenyl)-1H-pyrrol-1-yl)propyl)thiophene-2-carboxylic acid]
